How the values were obtained:
[1] = half-life in animal (dog) and in man; conditions: in vivo
[2] = tested on: hepatic glutatione-S-transferase; assay: activity of hepatic glutathione-S-transferase
[3] = solubility in solvents and water; assay type: physicochemical
Procedure: According to the present invention there is provided a compound of formula (I) in which R1 is -OCH3 and R is CH3, which is a crystalline yellow compound, which decomposes upon heating to 170°C, is soluble (1 : 100) in methanol and (1 : 30) in dimethylformamide, but insoluble in water.

Trichomonas Vaginalis = assay type: in vivo, humans
Procedure: The clinical investigation involved 42 patients, aged from 22 to 55, affected by vaginitis induced by Trichomonas Vaginalis.
The diagnosis was determined through bacterioscopic, cultural and May-Grunwald Giemsa examinations, which were repeated 3 days after the end of the treatment. The 42 Patients were splitted into 6 groups of 7 patients each.

[4] = treated orally (1st, 2nd, 3rd, 4th groups)

Cc1ncc([N+](=O)[O-])n1CCO [metronidazole, 1-(2-hydroxyethyl)-2-methyl-5-nitro-imidazole]
half-life [1]: 7.3 h
activity of the hepatic glutatione-S-transferase [2]: does not exert this action

COc1ccc(OC(=O)CCC(=O)Nc2nccc(C=Cc3ncc([N+](=O)[O-])n3C)n2)c(C(C)(C)C)c1 [p-methoxy-o-tert-butyl-phenol ester of 5-nitro-imidazolyl-2-ethenyl-(2-amino-pyrimidyl)-N-succinic acid]
solubility in water [3]: insoluble
complete recovery (Trichomonas Vaginalis; 5th group, treated only locally): 85%
Trichomonas vaqinalis disappeared, number of patients (Trichomonas Vaginalis; 5th group, treated only locally, 3 vaginal tablets of 200 mg per day for 5 days): 6 out of 7 patients
positive results (Trichomonas Vaginalis; 6th group, treated both orally and locally): 100%
activity against Trichomoniasis (Trichomonas Vaginalis; 42 patients): highly active
tolerance in patients (Trichomonas Vaginalis; human, in vivo, po): well tolerated
complete success (Trichomonas Vaginalis; [4]): 98%
complete success, number of patients (Trichomonas Vaginalis; [4]): 25 patiens out of 28

Source: patent EP0045990A1, “Novel antibacterial and antiprotozoal derivatives, a process for the preparation thereof, and related pharmaceutical compositions” (Farmatis S.r.l., priority 1980, dated 1982)
